From US8987195B2 (priority 2012, dated 2015)
Where two headings read alike, the source gives them in different places.

What was measured:
HCV genotype 1b replicon = assay: HCV replicon assay, genotype 1b replicon EC50; assay type: cell-based, Hepatitis C virus; conditions: Hepatitis C virus, genotype 1b replicon, read-out: EC50 [gt-1b]
In short: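 Assay format: compound titration on stable replicon cells, no G418 during treatment, 24 to 48 hours. Lysates were assayed for replicon RNA (hybridization/protection or TaqMan) or luciferase; EC50 fitted to four parameters against DMSO.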

[1] = target: HCV NS3/4A protease genotype 1b (Hepatitis C virus genotype 1b, UniProt P26663); assay: HCV NS3/4A protease time-resolved fluorescence (TRF) assay, Ki against genotype 1b; assay type: biochemical; conditions: IC50 [gt-1b] (nM), NS3/4A genotype 1b, enzyme 0.2 nM
In short: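 Enzyme was pre-incubated 30 min with inhibitor in HEPES pH 7.5 buffer (150 mM NaCl, 15% glycerol, 10 mM DTT). Reaction ran 2.5 h at room temperature with 25 nM europium TRF peptide substrate, read at ex 340/em 615 nm. Enzyme levels: 0.2 nM (1b), 0.4 nM (A156T), 0.025 nM (3a). Ki came from four-parameter IC50 via IC50=Ki(1+[S]/KM).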

SMILES	EC50 (HCV genotype 1b replicon) [nM]	IC50 [1] [nM]	EC50 (HCV genotype 1b replicon; K+ salt) [nM]	IC50 ([1]; K+ salt) [nM]	EC50 (HCV genotype 1b replicon; GETYPE1B|GT1B) [nM]
Cc1nc2c(F)cccc2c2c1O[C@]1(CC2)C[C@H]2C(=O)NC3(C(=O)NS(=O)(=O)C4(C)CC4)C[C@H]3/C=C\CCCCC[C@H](NC(=O)OC(C)(C)C)C(=O)N2C1 (stereo partly drawn) [Example 45, tert-Butyl (1aR,3aS,3′R,9S,16aS,Z)-7′-fluoro-5′-methyl-1a-(1-methylcyclopropylsulfonylcarbamoyl)-3,8-dioxo-1a,1′,2,2′,3,3a,4,6,8,9,10,11,12,13,14,16a-hexadecahydro-1H-spiro[cyclopropa[e]pyrrolo[1,2-a][1,4]diazacyclopentadecine-5,3′-pyrano[2,3-c]quinoline]-9-ylcarbamate]	1.1	0.011	–	–	–
COc1ccc2nc(C3CCC3)c3c(c2c1)CC[C@]1(C[C@H]2C(=O)NC4(C(=O)NS(=O)(=O)C5(C)CC5)C[C@H]4/C=C\CCCCC[C@H](NC(=O)OC(C)(C)C)C(=O)N2C1)O3 (stereo partly drawn) [Example 46, tert-Butyl (1aR,3aS,3′R,9S,16aS,Z)-5′-cyclobutyl-9′-methoxy-1a-(1-methylcyclopropylsulfonylcarbamoyl)-3,8-dioxo-1a,1′,2,2′,3,3a,4,6,8,9,10,11,12,13,14,16a-hexadecahydro-1H-spiro[cyclopropa[e]pyrrolo[1,2-a][1,4]diazacyclopentadecine-5,3′-pyrano[2,3-c]quinoline]-9-ylcarbamate]	–	–	0.4	0.02	–
Cc1nc2ccccc2c2c1O[C@]1(CC2)C[C@H]2C(=O)N[C@]3(C(=O)NS(=O)(=O)C4(C)CC4)C[C@H]3/C=C\CCCCC[C@H](NC(=O)OC(C)(C)C(F)(F)F)C(=O)N2C1 [Example 47]	–	0.011	–	–	3.72
COc1ccc2nc(CC(F)(F)F)c3c(c2c1)CC[C@]1(C[C@H]2C(=O)N[C@]4(C(=O)NS(=O)(=O)C5(C)CC5)C[C@H]4/C=C\CCCCC[C@H](NC(=O)OCC(C)(C)C)C(=O)N2C1)O3 [Example 48, Neopentyl((2R,6S,13aS,14aR,16aS,Z)-9′-methoxy-14a-(((1-methylcyclopropyl)sulfonyl)carbamoyl)-5,16-dioxo-5′-(2,2,2-trifluoroethyl)-1′,2′,3,5,6,7,8,9,10,11, 13a,14,14a,15,16,16a-hexadecahydro-1H-spiro[cyclopropa[e]pyrrolo[1,2-a][1,4]diazacyclopentadecine-2,3′-pyrano[2,3-c]quinolin]-6-yl)carbamate]	1.1	0.006	–	–	–
COCCCOc1ccc2nc(C(F)(F)F)c3c(c2c1)CC[C@]1(C[C@H]2C(=O)N[C@]4(C(=O)NS(=O)(=O)C5(C)CC5)C[C@H]4/C=C\CCCCC[C@H](NC(=O)OC(C)(C)C)C(=O)N2C1)O3 [Example 51, tert-Butyl ((2R,6S,13aS,14aR,16aS,Z)-9′-(3-methoxypropoxy)-14a-(((1-methylcyclopropyl)sulfonyl)carbamoyl)-5,16-dioxo-5′-(trifluoromethyl)-1′,2′,3,5,6,7,8,9,10,11,13a, 14,14a,15,16,16a-hexadecahydro-1H-spiro[cyclopropa[e]pyrrolo[1,2-a][1,4]diazacyclopentadecine-2,3′-pyrano[2,3-c]quinolin]-6-yl)carbamate]	–	–	0.246	0.011	–
COc1ccc2nc(C(F)(F)F)c3c(c2c1)[C@H](O)C[C@]1(C[C@H]2C(=O)N[C@]4(C(=O)NS(=O)(=O)C5(C)CC5)C[C@H]4/C=C\CCCCC[C@H](NC(=O)OC(C)(C)C)C(=O)N2C1)O3 [Example 54, tert-Butyl [(1′R,2S,6S,12Z,13aS,14aR,16aS)-1′-hydroxy-9′-methoxy-14a-{[(1-methylcyclopropyl)sulfonyl]carbamoyl}-5,16-dioxo-5′-(trifluoromethyl) -1,1′,2′,5,6,7,8,9,10,11,13a,14,14a,15,16,16a-hexadecahydrospiro[cyclopropa[e]pyrrolo[1,2-a][1,4]diazacyclopentadecine-2,3′-pyrano[2,3-c]quinolin]-6-yl]carbamate]	1.18	0.012	–	–	–
COc1ccc2nc(C(F)(F)F)c3c(c2c1)[C@@H](O)C[C@]1(C[C@H]2C(=O)N[C@]4(C(=O)NS(=O)(=O)C5(C)CC5)C[C@H]4/C=C\CCCCC[C@H](NC(=O)OC(C)(C)C)C(=O)N2C1)O3 [Example 55, tert-Butyl [(1′S,2S,6S,12Z,13aS,14aR,16aS)-1′-hydroxy-9′-methoxy-14a-{[(1-methylcyclopropyl)sulfonyl]carbamoyl}-5,16-dioxo-5′-(trifluoromethyl) -1,1′,2′,5,6,7,8,9,10,11,13a,14,14a,15,16,16a-hexadecahydrospiro[cyclopropa[e]pyrrolo[1,2-a][1,4]diazacyclopentadecine-2,3′-pyrano[2,3-c]quinolin]-6-yl]carbamate]	0.578	0.007	–	–	–
COc1ccc2nc(C)c3c(c2c1)[C@H](F)C[C@]1(C[C@H]2C(=O)N[C@]4(C(=O)NS(=O)(=O)C5(C)CC5)C[C@H]4/C=C\CCCCC[C@H](NC(=O)OC(C)(C)C)C(=O)N2C1)O3 [Example 56, tert-Butyl ((1′R,2S,6S,13aS,14aR,16aS,Z)-1′-fluoro-9′-methoxy-5′-methyl-14a-(((1-methylcyclopropyl)sulfonyl)carbamoyl)-5,16-dioxo-1′,2′,3,5,6,7,8,9,10,11,13a,14,14a, 15,16,16a-hexadecahydro-1H-spiro[cyclopropa[e]pyrrolo[1,2-a][1,4]diazacyclopentadecine-2,3′-pyrano[2,3-c]quinolin]-6-yl)carbamate]	–	–	1.66	0.008	–
COc1ccc2nc(C)c3c(c2c1)CC[C@]1(C[C@H]2C(=O)N[C@]4(C(=O)NS(=O)(=O)C5(C)CC5)C[C@H]4/C=C\CCCCC[C@H](Nc4ncccn4)C(=O)N2C1)O3 [Example 57, (2R,6S,13aS,14aR,16aS,Z)-9′-methoxy-5′-methyl-N-((1-methylcyclopropyl)sulfonyl)-5,16-dioxo-6-(pyrimidin-2-ylamino)-1′,2′,3,5,6,7,8,9,10,11,13a,14,14a,15,16,16a-hexadecahydro-1H-spiro[cyclopropa[e]pyrrolo[1,2-a][1,4]diazacyclopentadecine-2,3′-pyrano[2,3-c]quinoline]-14a-carboxamide]	9.23	0.137	–	–	–
Cc1nc2ccc(C#N)cc2c2c1O[C@]1(CC2)C[C@H]2C(=O)N[C@]3(C(=O)NS(=O)(=O)C4(C)CC4)C[C@H]3/C=C\CCCCC[C@H](NC(=O)OC(C)(C)C)C(=O)N2C1 [Example 59, tert-Butyl ((2R,6S,13aS,14aR,16aS,Z)-9′-cyano-5′-methyl-14a-(((1-methylcyclopropyl)sulfonyl)carbamoyl)-5,16-dioxo-1′,2′,3,5,6,7,8,9,10,11,13a,14,14a,15,16,16a-hexadecahydro-1H-spiro[cyclopropa[e]pyrrolo[1,2-a][1,4]diazacyclopentadecine-2,3′-pyrano[2,3-c]quinolin]-6-yl)carbamate]	3.45	0.019	–	–	–
CC(C)(C)OC(=O)N[C@H]1CCCCC/C=C\[C@@H]2C[C@@]2(C(=O)NS(=O)(=O)C2(C)CC2)NC(=O)[C@@H]2C[C@]3(CCc4c(c(C(F)(F)F)nc5ccc(OCCO)cc45)O3)CN2C1=O [Example 60, tert-Butyl ((2R,6S,13aS,14aR,16aS,Z)-9′-(2-hydroxyethoxy)-14a-(((1-methylcyclopropyl)sulfonyl)carbamoyl)-5,16-dioxo-5′-(trifluoromethyl)-1′,2′,3,5,6,7,8,9,10,11,13a, 14,14a,15,16,16a-hexadecahydro-1H-spiro[cyclopropa[e]pyrrolo[1,2-a][1,4]diazacyclopentadecine-2,3′-pyrano[2,3-c]quinolin]-6-yl)carbamate]	1.23	0.009	–	–	–
Cc1nc2ccccc2c2c1O[C@]1(CC2)C[C@H]2C(=O)N[C@]3(C(=O)NS(=O)(=O)C4(C)CC4)C[C@H]3/C=C\CCCCC[C@H](NC(=O)N3CCCC3)C(=O)N2C1 [Example 61, (2R,6S,12Z,13aS,14aR,16aS)-5′-methyl-N-[(1-methylcyclopropyl)sulfonyl]-5,16-dioxo-6-[(pyrrolidin-1-ylcarbonyl)amino]-1,1′,2′,6,7,8,9,10,11,13a,14,15,16,16a-tetradecahydrospiro[cyclopropa[e]pyrrolo[1,2-a][1,4]diazacyclopentadecine-2,3′-pyrano[2,3-c]quinoline]-14a(5H)-carboxamide]	12.2	0.015	–	–	–
COc1ccc2nc(C(F)(F)F)c3c(c2c1)C=C[C@]1(CN2C(=O)[C@@H](NC(=O)OC(C)(C)C)CCCCC/C=C\[C@@H]4C[C@@]4(C(=O)NS(=O)(=O)C4(C)CC4)NC(=O)[C@@H]2C1C)O3 (stereo partly drawn) [Example 62, tert-Butyl ((2S,6S,13aS,14aR,16aS,Z)-9′-methoxy-1-methyl-14a-(((1-methylcyclopropyl)sulfonyl)carbamoyl)-5,16-dioxo-5′-(trifluoromethyl)-3,5,6,7,8,9,10,11,13a, 14,14a,15,16,16a-tetradecahydro-1H-spiro[cyclopropa[e]pyrrolo[1,2-a][1,4]diazacyclopentadecine-2,3′-pyrano[2,3-c]quinolin]-6-yl)carbamate]	0.26	0.016	–	–	–
